Measurements published in US20120039822A1, “DESENSITIZING DENTIFRICE” (priority 2009, published 2012).

Assay: Solubility of triclosan in aqueous solutions, filtration methodology (filtrate analyzed for triclosan)
Assay type: physicochemical
Procedure: In the first set of experiments, the solubility of triclosan in the presence/ absence of KCl was measured using a filtration methodology in which the filtrate was analyzed for triclosan.
In the following experiments, triclosan solubility was measured with increasing concentrations of hydroxypropyl-beta-cyclodextrin (no SLS, no KCl).
In the next experiments, triclosan solubility was measured in the presence of hydroxypropyl-beta-cyclodextrin along with SLS and KCl.

Oc1cc(Cl)ccc1Oc1ccc(Cl)cc1Cl [Triclosan, 2,4,4′-trichloro-2′-hydroxy-diphenyl ether]
Appearance (0% SLS - 0% (control)): Suspension and no precipitate
Appearance (1.5% SLS - 0% KCl): Suspension and no precipitate
Appearance (1.5% SLS - 3.75% KCl): Turbid and thick precipitate
Triclosan solubility, % (Table 3, 0% SLS - 0% (control)): 0.012%
Triclosan solubility, % (Table 3, 1.5% SLS - 0% KCl): 0.330%
Triclosan solubility, % (Table 3, 1.5% SLS - 0% KCl, listed as triclosan): increased the solubility
Triclosan solubility, % (Table 3, 1.5% SLS - 3.75% KCl): 0.110%
Triclosan solubility, % (Table 3, 1.5% SLS - 3.75% KCl, listed as triclosan): decreased solubility
Triclosan solubility, % (Table 4, 0% HPβCD in water (no SLS, no KCl)): 0.012%
Triclosan solubility, % (Table 4, 10% HPβCD in water (no SLS, no KCl)): 0.510%
Triclosan solubility, % (Table 4, 15% HPβCD in water (no SLS, no KCl)): 0.680%
Triclosan solubility, % (Table 4, 20% HPβCD in water (no SLS, no KCl)): 0.710%
Triclosan solubility, % (Table 5, 0% SLS): 0.012%
Triclosan solubility, % (Table 5, 1.5% SLS - 3.75% KCl): 0.011%
Triclosan solubility, % (Table 5, 1.5% SLS - 3.75 KCl - 10% HPbCD): 0.190%
Triclosan solubility, % (Table 5, 1.5% SLS - 3.75 KCl - 20% HPbCD): 0.380%
triclosan solubility with increasing concentrations of hydroxypropyl-beta-cyclodextrin (no SLS, no KCl): increased in a dose-dependent manner
triclosan solubility in the presence of hydroxypropyl-beta-cyclodextrin along with SLS and KCl (with SLS and KCl): increased solubility
